Test [1] has as its target human S1P1 (EDG-1) (Homo sapiens (Human), UniProt P21453). The test can be described thus: Inhibition of binding of [33P]-S1P to S1P1 (EDG-1), CHO cell membrane fractions. The following applies: [33P]-S1P displacement, CHO membranes overexpressing human S1P1. Here is the method:
(§1) Biological Experimental Example 1: Measurement of the Inhibitory Action of the Compound of the Present Invention on Binding of [^33P]-S1P to S1P5 (EDG-8)
(§2) A reaction was carried out in a 96-well microplate by using membrane fractions of Chinese hamster ovary (CHO) cells each of which was made to overexpress human S1P1 (EDG-1) or human S1P5 gene respectively, in an amount of the membrane fraction of 1 mg protein/mL. To each of the wells, 100 μL of a vehicle (DMSO) solution or a two-fold concentration-ligand solution each of which was diluted with Binding Buffer (50 mmol/L, Tris pH 7.5, 5 mmol/L, MgCl2, 0.5% BSA and Complete EDTA free (1 tablet/50 mL)), and 50 μL of 0.16 nmol/L [^33P]-S1P (manufactured by American Radiolabeled Chemicals, Inc.) diluted with Binding Buffer were added. Thereafter, the membrane fraction solutions (50 μL) was added to the wells and the reaction was carried out at room temperature for 60 minutes. After the reaction, suction filtration was carried out by using a 96-well UNIFILTER, and the 96-well microplate was washed with Wash Buffer (50 mmol/L, Tris pH 7.5, 0.5% BSA) ([…]), and thereafter, was dried at 60° C. for 45 minutes. MicroScint (trade name) 20 (50 μL/well) was added and the plate was covered with TopSeal-A, and thereafter, the radioactivity was measured by using TopCount (manufactured by PerkinElmer Inc.).

Test [2] deals with T1, human S1P5 (EDG-8) (Homo sapiens (Human), UniProt Q9H228). The test can be described thus: Inhibition of binding of [33P]-S1P to S1P5 (EDG-8), CHO cell membrane fractions. To be noted: [33P]-S1P displacement, CHO membranes overexpressing human S1P5. How it is done:
as §1, §2

The target of test [3] is T1, human S1P5 (EDG-8). The test can be described thus: S1P5 receptor agonist activity by monitoring intracellular cyclic AMP in CHO cells overexpressing human S1P5. The following applies: cAMP, forskolin-stimulated CHO cells overexpressing human S1P5. The test is classed as cell-based. How it is done:
Biological Example 2: Evaluation of S1P5 Receptor Agonist Activities of the Compound of the Present Invention by Monitoring the Concentration of Produced Intracellular Cyclic AMP
CHO cells which were made to overexpress human S1P5 (EDG-8) gene were cultured in Ham's F12 Medium (manufactured by Gibco-BRL) containing 10% FBS (fetal bovine serum), penicillin/streptomycin and geneticin (0.25 mg/mL). The medium was removed from the cultured cells, the cultured cells were washed once with phosphate-buffered saline, and the cultured cells were treated with a vehicle (DMSO) solution or a compound solution each of which was diluted with Buffer (Hanks' balanced salt solution containing 20 mmol/L HEPES, 0.1 or 0.2% BSA, 1 mmol/L IBMX and 5 μmol/L forskolin) at 37° C. for 30 minutes. Thereafter, the cultured cells were washed once with phosphate-buffered saline, lysis of the cells, and the concentration of cyclic AMP in the cell lysate were measured by using cAMP Assay Kit (Cisbio Bioassays).

Our source for the IC50 and EC50 values is patent US10730830B2, “Tetrahydronaphthalene derivative” (ONO PHARMACEUTICAL CO., LTD., priority 2016, dated 2020).

Where a name gives a salt, the structure may show the parent alone. Where only a bound is given, the exact number is not on record here.

T1 sequence (Q9H228 whole entry): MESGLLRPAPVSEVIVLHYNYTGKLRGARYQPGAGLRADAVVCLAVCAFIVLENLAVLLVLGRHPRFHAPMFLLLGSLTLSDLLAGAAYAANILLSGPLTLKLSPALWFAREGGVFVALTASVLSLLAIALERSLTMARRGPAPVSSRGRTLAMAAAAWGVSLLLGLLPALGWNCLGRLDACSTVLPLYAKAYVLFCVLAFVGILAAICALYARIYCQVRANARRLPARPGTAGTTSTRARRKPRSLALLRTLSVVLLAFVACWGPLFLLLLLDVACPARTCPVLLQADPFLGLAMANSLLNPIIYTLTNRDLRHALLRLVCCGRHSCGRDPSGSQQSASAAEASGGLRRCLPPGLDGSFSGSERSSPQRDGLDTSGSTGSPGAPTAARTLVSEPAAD
Sequence of human S1P1 (EDG-1) (P21453 whole entry): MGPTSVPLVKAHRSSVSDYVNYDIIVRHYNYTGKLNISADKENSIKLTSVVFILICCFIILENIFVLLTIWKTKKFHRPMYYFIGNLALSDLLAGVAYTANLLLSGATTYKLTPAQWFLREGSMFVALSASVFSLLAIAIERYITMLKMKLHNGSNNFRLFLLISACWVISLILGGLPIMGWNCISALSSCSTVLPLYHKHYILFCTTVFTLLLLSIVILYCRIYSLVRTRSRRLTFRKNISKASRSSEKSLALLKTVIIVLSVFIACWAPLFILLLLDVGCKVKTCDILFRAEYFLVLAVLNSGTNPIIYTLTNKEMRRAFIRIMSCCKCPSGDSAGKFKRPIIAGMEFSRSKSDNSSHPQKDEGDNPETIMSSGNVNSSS

In the case of `O=C(O)C1CC(N2CCc3cccc(OCCc4cccc5ccccc45)c3CC2)C1` (single isomer, unassigned) [Example 23 (8), 3-{6-[2-(1-Naphthyl)ethoxy]-1,2,4,5-tetrahydro-3H-3-benzazepin-3-yl}cyclobutanecarboxylic Acid], the IC50 (as a rule, the concentration that gives 50% inhibition) in test [1] was greater than 10000 nM; in test [2], 1 to 100 nM. With `O=C(O)C1CN(C2CCc3cccc(OCCc4cccc5ccccc45)c3C2)C1` (single isomer, unassigned; (+)) [Example 51 (2), (+)-1-{8-[2-(1-Naphthyl)ethoxy]-1,2,3,4-tetrahydro-2-naphthalenyl}-3-azetidinecarboxylic Acid], the figures for the IC50 in test [1] and in test [2] were greater than 10000 nM and 1 to 100 nM, respectively. For `O=C(O)C1CN(C2CCc3cccc(OCCc4cccc5ccccc45)c3C2)C1` (single isomer, unassigned; (-)) [Example 51 (1), (−)-1-{8-[2-(1-Naphthyl)ethoxy]-1,2,3,4-tetrahydro-2-naphthalenyl}-3-azetidinecarboxylic Acid], in that order: greater than 10000 nM and 1 to 100 nM. Turning to `O=C(O)C1CCN(C2CCc3c(cccc3OC/C=C/c3ccc(C(F)(F)F)cc3)C2)C1` (stereo not drawn) [Example 3 (1), 1-[5-({(2E)-3-[4-(Trifluoromethyl)phenyl]-2-propen-1-yl}oxy)-1,2,3,4-tetrahydro-2-naphthalenyl]-3-pyrrolidinecarboxylic Acid], the half-maximal inhibitory concentration (IC50) in test [1] is greater than 30000 nM; in test [2], 1000 to 3000 nM. For `CN(CCC(=O)O)C1CCc2cccc(OC/C=C/c3ccc(C(F)(F)F)cc3)c2C1` (stereo not drawn) [Example 3 (3), 3-{Methyl[8-({(2E)-3-[4-(trifluoromethyl)phenyl]-2-propen-1-yl}loxy)-1,2,3,4-tetrahydro-2-naphthalenyl]amino}propanoic Acid], in that order: greater than 30000 nM and 100 to 1000 nM. For `O=C(O)C1CN(C2CCc3cccc(OCCCc4ccccc4)c3C2)C1` (stereo not drawn) [Example 3 (4), 1-[8-(3-Phenylpropoxy)-1,2,3,4-tetrahydro-2-naphthalenyl]-3-azetidinecarboxylic Acid], in that order: greater than 10000 nM and 1 to 100 nM. For the compound `O=C(O)C1CN(C2CCc3cccc(OCCc4cccc5ccccc45)c3C2)C1` (stereo not drawn) [Example 3 (5), 1-{8-[2-(1-Naphthyl)ethoxy]-1,2,3,4-tetrahydro-2-naphthalenyl}-3-azetidinecarboxylic Acid], the concentration for a half-maximal effect (EC50) (usually the midpoint of the concentration-response curve) in test [3] lay in the range of 1 to 100 nM. In the case of `O=C(O)CCCN1CCc2c(cccc2OCCc2ccc3ccccc3c2)C1` [Example 18 (1), 4-{5-[2-(2-naphthyl)ethoxy]-3,4-dihydro-2(1H)-isoquinolinyl}butanoic Acid trifluoroacetate], the IC50 was greater than 30000 nM in test [1] and 1000 to 3000 nM in test [2]. For `O=C(O)CCCN1CCc2cccc(OC/C=C/c3ccc(C(F)(F)F)cc3)c2C1` [Example 18 (2), 4-[8-({(2E)-3-[4-(Trifluoromethyl)phenyl]-2-propen-1-yl}oxy)-3,4-dihydro-2(1H)-isoquinolinyl]butanoic Acid trifluoroacetate], in that order: greater than 30000 nM and 1000 to 3000 nM.

Take `CC(C)c1ccc(/C=C/COc2cccc3c2CCN(CCCC(=O)O)C3)cc1` [Example 18 (3), 4-[5-{[(2E)-3-(4-Isopropylphenyl)-2-propen-1-yl]oxy}-3,4-dihydro-2(1H)-isoquinolinyl]butanoic Acid]: the values for the half-inhibitory concentration (IC50) in test [1] and in test [2] were greater than 30000 nM and 1000 to 3000 nM, respectively. For `O=C(O)CCCN1CCc2c(cccc2OC/C=C/c2ccc(OC(F)F)cc2)C1` [Example 18 (4), 4-[5-({(2E)-3-[4-(Difluoromethoxy)phenyl]-2-propen-1-yl}oxy)-3,4-dihydro-2(1H)-isoquinolinyl]butanoic Acid], in that order: greater than 30000 nM and 1000 to 3000 nM. For `O=C(O)CCN1CCc2cccc(OC/C=C/c3ccc(C(F)(F)F)cc3)c2CC1` [Example 18 (8), 3-[6-({(2E)-3-[4-(Trifluoromethyl)phenyl]-2-propen-1-yl}oxy)-1,2,4,5-tetrahydro-3H-3-benzazepin-3-yl]propanoic Acid], in that order: greater than 10000 nM and 100 to 1000 nM. For `O=C(O)CCCN1CCc2cccc(OCCOc3ccc(C(F)(F)F)cc3)c2CC1` [Example 18 (10), 4-(6-{2-[4-(Trifluoromethyl)phenoxy]ethoxy}-1,2,4,5-tetrahydro-3H-3-benzazepin-3-yl)butanoic Acid], in that order: greater than 10000 nM and 1 to 100 nM. In test [3], `O=C(O)CCCN1CCc2cccc(OCCCc3ccccc3)c2CC1` [Example 18 (11), 4-[6-(3-Phenylpropoxy)-1,2,4,5-tetrahydro-3H-3-benzazepin-3-yl]butanoic Acid] returned an EC50 of 1 to 100 nM.

Turning to `O=C(O)CCCN1CCc2cccc(OCCCC3CCCCC3)c2CC1` [Example 18 (14), 4-[6-(3-Cyclohexylpropoxy)-1,2,4,5-tetrahydro-3H-3-benzazepin-3-yl]butanoic Acid], the figures for the IC50 in test [1] and in test [2] were greater than 10000 nM and 100 to 1000 nM, respectively.

Consider `O=C(O)CCCN1CCc2cccc(OCC3CCc4ccccc4C3)c2CC1` (stereo not drawn) [Example 18 (16), 4-[6-(1,2,3,4-Tetrahydro-2-naphthalenylmethoxy)-1,2,4,5-tetrahydro-3H-3-benzazepin-3-yl]butanoic Acid], for which the figures for the IC50 in test [1] and in test [2] were greater than 10000 nM and 100 to 1000 nM, respectively. On to `O=C(O)CCCN1CCc2cccc(OCCc3cccc4ccccc34)c2CC1` [Example 18 (18), 4-{6-[2-(1-Naphthyl)ethoxy]-1,2,4,5-tetrahydro-3H-3-benzazepin-3-yl}butanoic Acid], for which the IC50 was greater than 10000 nM in test [1] and 1 to 100 nM in test [2]. In test [3], this compound had a 50% effective concentration (EC50) of 1 to 100 nM. For the compound `O=C(O)CCCN1CCc2cccc(OCCc3ccccc3)c2CC1` [Example 18 (22), 4-[6-(2-Phenylethoxy)-1,2,4,5-tetrahydro-3H-3-benzazepin-3-yl]butanoic Acid], the IC50 in test [1] was greater than 10000 nM; in test [2], 100 to 1000 nM. Turning to `O=C(O)CCCN1CCc2cccc(OCCCCCc3ccccc3)c2CC1` [Example 18 (24), 4-{6-[(5-Phenylpentyl)oxy]-1,2,4,5-tetrahydro-3H-3-benzazepin-3-yl}butanoic Acid], the figures for the 50% inhibitory concentration (IC50) in test [1] and in test [2] were greater than 10000 nM and 1 to 100 nM, respectively. For `O=C(O)CCCN1CCc2cccc(OCCC3Cc4ccccc43)c2CC1` (stereo not drawn) [Example 18 (26), 4-{6-[2-(Bicyclo[4.2.0]octa-1,3,5-trien-7-yl)ethoxy]-1,2,4,5-tetrahydro-3H-3-benzazepin-3-yl}butanoic Acid], in that order: greater than 10000 nM and 100 to 1000 nM. For `CCCCCCCCOc1cccc2c1CCN(CCCC(=O)O)CC2` [Example 18 (32), 4-[6-(Octyloxy)-1,2,4,5-tetrahydro-3H-3-benzazepin-3-yl]butanoic Acid], in that order: greater than 10000 nM and 100 to 1000 nM. For `O=C(O)CCCN1CCc2cccc(OCCCC3CCOCC3)c2CC1` [Example 18 (42), 4-{6-[3-(tetrahydro-2H-pyran-4-yl)propoxy]-1,2,4,5-tetrahydro-3H-3-benzazepin-3-yl}butanoic Acid], in that order: greater than 10000 nM and 100 to 1000 nM. Turning to `Cc1ccc2c(c1OCCCc1ccccc1)CCN(CCCC(=O)O)CC2` [Example 29, 4-[7-Methyl-6-(3-phenylpropoxy)-1,2,4,5-tetrahydro-3H-3-benzazepin-3-yl]butanoic Acid], the IC50 is greater than 10000 nM in test [1] and 1 to 100 nM in test [2]. For `O=C(O)CC1(CN2CCc3cccc(OCCc4cccc5ccccc45)c3CC2)CC1` [Example 37, [1-({6-[2-(1-Naphthyl)ethoxy]-1,2,4,5-tetrahydro-3H-3-benzazepin-3-yl}methyl)cyclopropyl]acetic Acid], in that order: greater than 10000 nM and 100 to 1000 nM. With `O=C(O)C1CN(C2Cc3cccc(OCCc4ccccc4)c3C2)C1` (stereo not drawn) [Example 48, 1-[4-(2-Phenylethoxy)-2,3-dihydro-1H-inden-2-yl]-3-azetidinecarboxylic Acid], the IC50 was greater than 30000 nM in test [1] and 100 to 1000 nM in test [2]. `O=C(O)CCCCN1CCCc2c(cccc2OC/C=C/c2ccc(C(F)(F)F)cc2)C1` [Example 49, 5-[6-({(2E)-3-[4-(Trifluoromethyl)phenyl]-2-propen-1-yl}oxy)-1,3,4,5-tetrahydro-2H-2-benzazepin-2-yl]pentanoic Acid]: the 50% inhibitory concentration (IC50) was greater than 30000 nM in test [1] and 1000 to 3000 nM in test [2].
